Test results published in US20050080120A1, “4-[3,5-bis-(2-hydroxy-phenyl)-[1,2,4]triazol-1-yl]-benzoic acid derivatives for treating an excess of metal in the body” (priority 2001, published 2005).

Structure (SMILES): O=C(O)c1ccc(-n2nc(-c3cccc(O)c3O)nc2-c2ccccc2O)cc1 [Example 1, 4-[3-(2,3-Dihydroxy-phenyl)-5-(2-hydroxy-phenyl)-[1,2,4]triazol-1-yl]benzoic Acid]
- melting point: 223 to 226 °C
